What was measured:
[1] = test system: thrombospondin in ES2 cells; assay: Microarray gene expression, Table 15; format: cell-based, human
Procedure: (§1) Y/D is the ratio (in folds) of gene expression in cells treated with compound Y as compared with those of the no drug control (D),
(§2) YM/D is the ratio of gene expression in cells treated with compound YM (ACH-Y, Y without sugar moiety) compared with those of the no drug control (D)
(§3) Cell culture and drug-treatment.: ES2 cells were seeded in a T-25 flask with 4.5 million cells per flask for 24 hours. Cell culture was replaced with fresh medium with xanifolia-Y (Y) or DMSO no drug control (D) for 24 hours. Cells were then harvested for RNA isolation. Three experiments were done.
(§4) RNA extraction, labeling, hybridization, and data analysis. RNA was extracted from tumor cells using the Qiagen RNeasy Kit. RNA quality and quantity was checked by the Agilent BioAnalyzer and the NanoDrop® ND-1000 spectrophotometer respectively before further manipulation. The first and second cDNA strands were synthesized from 20 ng of total RNA using the Affymetrix T7 oligo(dT) primer protocol and kit for the two-cycle amplification. To produce amplified biotin-labeled-cRNA, the cDNA was […] by in vitro transcription using the MegaScript kit from Ambion. 15.0 μg of the labeled cRNA was fragmented and re-checked for concentration using the NanoDrop® ND-1000 spectrophotometer. A hybridization cocktail containing Affymetrix spike-in controls and fragmented labeled cRNA was loaded onto the Human U133 Plus 2.0 GeneChip® oligonucleotide array. The Affymetrix array (Affymetrix, Inc. Santa Clara, Calif.) is comprised of over 1,300,000 unique oligonucleotide features that represent greater than 38,500 well-substantiated human genes. The array was hybridized for 16 hours at 45° C. with rotation at 60 rpm then washed and stained with a strepavidin, R-phycoerythrin conjugate stain on the Affymetrix Fluidicis Station 450. Signal amplification was done using biotinylated antistreptavidin. The arrays were scanned using the GeneChip® 3000 confocal laser scanner with autoloader. The images were analyzed and quality control metrics recorded using Affymetrix GCOS software version 1.4. Lastly, the expression value for each gene was calculated using dChip PM-only model based or Plier algorithm.
(§5) Pairwise comparisons were made as follows: Treated vs. Control (Y vs. D), Modified Drug vs Control (YM/ACY-H vs. D) and Treated vs. Modified Drug (Y vs. YM/ACH-Y) Cel files analyzed using the Bioconductor package of R Statistical programming. Limma analysis generated a reasonable number of changing genes between the samples.
(§6) The raw data in the .CEL files were normalized by the GCRMA method (robust multi-array analysis). It is implemented in Bioconductor (http://www.bioconductor.org/). The raw signal intensity data were normalized, background corrected and summarized based on certain statistical models, and an expression value, in log 2-scale, is obtained per chip per probe set. Then the null hypothesis was tested that there's no significant changes in gene expression between the treatment pairs. This was done by LIMMA and is also implemented in Bioconductor. It uses empirical Bayes method to estimate the variance in gene expression. One comparison was made, namely, High Grade vs. Low Grade. The raw p-values were adjusted by the Benjamnin-Hochberg method for false discovery rate (FDR) control. All data sets contained a significant number of genes with a p-value less than 0.05, which is that the probability that a gene is NOT differential expressed (false positive) is 1:20.

TOV-21G = assay: MTT assay TOV-21G; format: cell-based; conditions: Homo sapiens, TOV21G, Clear cell
Procedure: Majority of ovarian cancers arise from the surface epithelium of ovary, most of them belong to the histological subtypes of clear cell and serous carcinoma. We obtained 10 more human ovarian carcinoma cell-lines of these histological subtypes for these studies. The inhibition activity exerted by Xanifolia-Y was determined with MTT assay.

[2] = test system: myosin expression in ES2 cells; assay: Microarray gene expression, Table 7; format: cell-based, human
Procedure: as §1, §2, §3, §4, §5, §6

[3] = test system: cadherins expression in ES2 cells; assay: Microarray gene expression, Table 8; format: cell-based, human
Procedure: as §1, §2, §3, §4, §5, §6

[4] = test system: angiopoietin expression in ES2 cells; assay: Microarray gene expression, Table 12; format: cell-based, human
Procedure: as §1, §2, §3, §4, §5, §6

[5] = test system: tenascin-C expression in ES2 cells; assay: Microarray gene expression, Table 9; format: cell-based, human; conditions: probe 201645_at
Procedure: as §1, §2, §3
RNA extraction, labeling, hybridization, and data analysis. RNA was extracted from tumor cells using the Qiagen RNeasy Kit. RNA quality and quantity was checked by the Agilent BioAnalyzer and the NanoDrop® ND-1000 spectrophotometer respectively before further manipulation. […] The images were analyzed and quality control metrics recorded using Affymetrix GCOS software version 1.4. Lastly, the expression value for each gene was calculated using dChip PM-only model based or Plier algorithm.
Pairwise comparisons were made as follows: Treated vs. Control (Y vs. D), Modified Drug vs Control (YM/ACY-H vs. D) and Treated vs. Modified Drug (Y vs. YM/ACH-Y) Cel files analyzed using the Bioconductor package of R Statistical programming. […]

[6] = test system: collagen expression in ES2 cells; assay: Microarray gene expression, Table 5; format: cell-based, human
Procedure: as §1, §2, §3, §4, §5, §6

[7] = test system: RAB3B, member RAS oncogene family protein expression in ES2 cells; assay: Microarray gene expression, Table 17; format: cell-based, human
Procedure: as §1, §2, §3, §4, §5, §6

## C/C=C(/C)C(=O)O[C@H]1[C@H](OC(=O)/C(C)=C\C)[C@@]2(CO)C(CC1(C)C)C1=CCC3[C@@]4(C)CC[C@H](O[C@@H]5OC(C(=O)O)[C@@H](O)C(O[C@@H]6O[C@@H](CO)C(O)C6O)C5O[C@@H]5OC(CO)[C@H](O)C(O)C5O)C(C)(C)C4CC[C@@]3(C)[C@]1(C)[C@@H](O)[C@H]2O (stereo partly drawn) [Xanifolia-Y, 3-O-[β-D-galactopyranosyl (1→2)]-α-L-arabinofuranosy (1→3)-β-D-glucuronopyranosyl-21,22-O-diangeloyl-3β, 15α, 16α, 21β, 22α, 28-hexahydroxyolean-12-ene]
[1]; probe 201108_s_at
  THBS1 thrombospondin 1, gene expression ratio to no drug control (D): −1.7 folds
[1]; probe 201109_s_at
  THBS1 thrombospondin 1, gene expression ratio to no drug control (D): −2.0 folds
[1]; probe 201110_s_at
  THBS1 thrombospondin 1, gene expression ratio to no drug control (D): −1.8 folds
TOV-21G
  IC50: 2200 nM
[2]; probe 202555_s_at
  MYLK myosin, light polypeptide kinase, gene expression ratio to no drug control (D): −1.6 folds
[2]; probe 203215_s_at
  MYO6 myosin VI, gene expression ratio to no drug control (D): −1.6 folds
[2]; probe 204527_at
  MYO5A myosin VA, gene expression ratio to no drug control (D): −1.6 folds
[2]; probe 211926_s_at
  MYH9 myosin, heavy polypeptide 9, non-muscle, gene expression ratio to no drug control (D): −2.2 folds
[2]; probe 212338_at
  MYO1D myosin ID, gene expression ratio to no drug control (D): −1.7 folds
[2]; probe 212372_at
  MYH10 myosin, heavy polypeptide 10, non-muscle, gene expression ratio to no drug control (D): −1.7 folds
[2]; probe 224823_at
  MYLK myosin, light polypeptide kinase, gene expression ratio to no drug control (D): −1.5 folds
[2]; probe 225080_at
  MYO1C Myosin IC, gene expression ratio to no drug control (D): −1.5 folds
[2]; span over probes of Table 7
  expression ratio to the control, myosin family: −1.5 to −2.2 folds
[3]; probe 201533_at
  CTNNB1 catenin (cadherin-associated protein), beta 1, 88 kDa, gene expression ratio to no drug control (D): −1.5 folds
[3]; probe 202468_s_at
  CTNNAL1 catenin (cadherin-associated protein), alpha-like 1, gene expression ratio to no drug control (D): −1.9 folds
[3]; probe 203440_at
  CDH2 cadherin 2, type 1, N-cadherin (neuronal), gene expression ratio to no drug control (D): −1.4 folds
[3]; probe 204677_at
  CDH5 cadherin 5, type 2, VE-cadherin, gene expression ratio to no drug control (D): −1.5 folds
[3]; probe 204726_at
  CDH13 cadherin 13, H-cadherin (heart), gene expression ratio to no drug control (D): −1.8 folds
[3]; probe 207149_at
  CDH12 cadherin 12, type 2 (N-cadherin 2), gene expression ratio to no drug control (D): −1.7 folds
[3]; probe 208407_s_at
  CTNND1 catenin (cadherin-associated, protein), delta 1, gene expression ratio to no drug control (D): −1.5 folds
[3]; probe 210844_x_at
  CTNNA1 catenin (cadherin-associated protein), alpha 1, 102 kDa, gene expression ratio to no drug control (D): −1.4 folds
[3]; probe 244091_at
  CDH13 cadherin 13, H-cadherin (heart), gene expression ratio to no drug control (D): −2.0 folds
[4]; probe 205572_at
  ANGPT2 angiopoietin 2, gene expression ratio to no drug control (D): 3.5 folds
[4]; probe 205609_at
  ANGPT1 angiopoietin 1, gene expression ratio to no drug control (D): −1.1 folds
[4]; probe 211148_s_at
  ANGPT2 angiopoietin 2, gene expression ratio to no drug control (D): 2.5 folds
[4]; probe 221009_s_at
  ANGPTL4 angiopoietin-like 4, gene expression ratio to no drug control (D): −1.2 folds
[4]; probe 227533_at
  ANGPTL1 Angiopoietin-like 1, gene expression ratio to no drug control (D): −1.5 folds
[5]
  TNC Tenascin C (hexabrachion), gene expression ratio to no drug control (D): −3.2 folds
[6]; probe 200654_at
  P4HB procollagen-proline, 2-oxoglutarate 4-dioxygenase, beta polypeptide, gene expression ratio to no drug control (D): −1.6 folds
[6]; probe 200656_s_at
  P4HB procollagen-proline, 2-oxoglutarate 4-dioxygenase, beta polypeptide, gene expression ratio to no drug control (D): −1.8 folds
[6]; probe 200827_at
  PLOD1 procollagen-lysine 1,2-oxoglutarate 5-dioxygenase 1, gene expression ratio to no drug control (D): −1.7 folds
[6]; probe 201438_at
  COL6A3 collagen, type VI, alpha 3, gene expression ratio to no drug control (D): −2.4 folds
[6]; probe 202185_at
  PLOD3 procollagen-lysine, 2-oxoglutarate 5-dioxygenase 3, gene expression ratio to no drug control (D): −1.3 folds
[6]; probe 202311_s_at
  COL1A1 collagen, type I, alpha 1, gene expression ratio to no drug control (D): −1.6 folds
[6]; probe 202465_at
  PCOLCE procollagen C-endopeptidase enhancer, gene expression ratio to no drug control (D): −1.3 folds
[6]; probe 202619_s_at
  PLOD2 procollagen-lysine, 2-oxoglutarate 5-dioxygenase 2, gene expression ratio to no drug control (D): −1.7 folds
[6]; probe 202620_s_at
  PLOD2 procollagen-lysine, 2-oxoglutarate 5-dioxygenase 2, gene expression ratio to no drug control (D): −1.4 folds
[6]; probe 202733_at
  P4HA2 procollagen-proline, 2-oxoglutarate 4-dioxygenase, alpha polypeptide II, gene expression ratio to no drug control (D): −1.4 folds
[6]; probe 203325_s_at
  COL5A1 collagen, type V, alpha 1, gene expression ratio to no drug control (D): −1.7 folds
[6]; probe 207543_s_at
  P4HA1 procollagen-proline, 2-oxoglutarate 4-dioxygenase, alpha polypeptide I, gene expression ratio to no drug control (D): −2.0 folds
[6]; probe 208535_x_at
  COL13A1 collagen, type XIII, alpha 1, gene expression ratio to no drug control (D): −1.4 folds
[6]; probe 209081_s_at
  COL18A1 collagen, type XVIII, alpha 1, gene expression ratio to no drug control (D): −1.7 folds
[6]; probe 211343_s_at
  COL13A1 collagen, type XIII, alpha 1, gene expression ratio to no drug control (D): −1.9 folds
[6]; probe 211809_x_at
  COL13A1 collagen, type XIII, alpha 1, gene expression ratio to no drug control (D): −2.0 folds
[6]; probe 211966_at
  COL4A2 collagen, type IV, alpha 2, gene expression ratio to no drug control (D): −1.8 folds
[6]; probe 211981_at
  COL4A1 collagen, type IV, alpha 1, gene expression ratio to no drug control (D): −1.6 folds
[6]; probe 212091_s_at
  COL6A1 collagen, type VI, alpha 1, gene expression ratio to no drug control (D): −1.6 folds
[6]; probe 212489_at
  COL5A1 collagen, type V, alpha 1, gene expression ratio to no drug control (D): −1.5 folds
[6]; probe 213110_s_at
  COL4A5 collagen, type IV, alpha 5 (Alport syndrome), gene expression ratio to no drug control (D): −1.6 folds
[6]; probe 213290_at
  COL6A2 collagen, type VI, alpha 2, gene expression ratio to no drug control (D): −1.6 folds
[6]; probe 213992_at
  COL4A6 collagen, type IV, alpha 6, gene expression ratio to no drug control (D): −2.0 folds
[6]; probe 217428_s_at
  COL10A1 collagen, type X, alpha 1, gene expression ratio to no drug control (D): −3.0 folds
[6]; probe 221729_at
  COL5A2 collagen, type V, alpha 2, gene expression ratio to no drug control (D): −1.3 folds
[6]; probe 221730_at
  COL5A2 collagen, type V, alpha 2, gene expression ratio to no drug control (D): −1.6 folds
[6]; probe 231766_s_at
  COL12A1 collagen, type XII, alpha 1, gene expression ratio to no drug control (D): −2.8 folds
[6]; probe 242324_x_at
  CCBE1 collagen and calcium binding EGF domains 1, gene expression ratio to no drug control (D): −1.3 folds
[6]; probe 1556138_a_at
  COL5A1 collagen, type V, alpha 1, gene expression ratio to no drug control (D): −2.2 folds
[6]; probe 1568611_at
  P4HA2 procollagen-proline, 2-oxoglutarate 4-dioxygenase, alpha polypeptide II, gene expression ratio to no drug control (D): −1.3 folds
[6]; span over probes of Table 5
  expression ratio to the control, collagen: −1.3 to −3.0 folds
[7]; probe 205924_at
  RAB3B, member RAS oncogene family, gene expression ratio to no drug control (D): −1.7 folds
[7]; probe 205925_s_at
  RAB3B, member RAS oncogene family, gene expression ratio to no drug control (D): −1.2 folds
[7]; probe 227123_at
  RAB3B, member RAS oncogene family, gene expression ratio to no drug control (D): −1.6 folds
[7]; probe 242629_at
  RAB3B, member RAS oncogene family, gene expression ratio to no drug control (D): −3.5 folds

From patent US10213451B2, “Methods and compounds for modulating the secretion or expression of adhesion proteins or angiopoietins of cells” (PACIFIC ARROW LIMITED, priority 2004, dated 2019)
